US9814720B2, “Compositions and methods of inhibiting IL-17 expression of neutrophils” (priority 2014, dated 2017)

What was measured:
RORγt = RORγt nuclear translocation in IL-6/23-stimulated murine neutrophils (confocal imaging); type: cell-based, C57BL/6 mice; conditions: IL-6+IL-23 stimulated, inhibitor 20 μM, FIG. 4D
Source text: Total bone marrow-derived cells were isolated from mouse femurs and tibias by flushing with RPMI and an 18-gauge needle. Erythrocytes were lysed with 1× lysis buffer (eBioscience), and bone marrow cells were separated on a Percoll (Fisher) gradient by density centrifugation (52%, 69%, and 78%). Cells at the 69-78% interface were harvested, and neutrophil purity (>98%) confirmed by flow cytometry and Wright-Giemsa staining. Murine or human neutrophils were suspended at a density of 10^6 cells/ml and incubated with […] of recombinant mouse or human IL-6 and 2 μg/ml IL-23 in RPMI, and the cells were maintained for 1-3 h at 37° C. in 5% CO2. Various inhibitors were used for assessing STAT3 activation. […] For the determination of RORγt-dependent signaling, SR1001 (20 μM; Sigma) was used, which inhibits RORγt binding to the IL-17 promoter site. All inhibitors were added to neutrophils 2 h prior to recombinant IL-6 and IL-23 stimulation. Corneas were dissected and incubated for 1 h at 37° C. in collaganese (80 U/ml) (C0130; Sigma-Aldrich), and washed in FACS buffer (PBS+1% FBS+0.5% Sodium azide). Ten corneas were pooled and analyzed by intracellular flow cytometry. Conversely, bone marrow cells or neutrophils were collected as described above and washed in FACS buffer. […] Cells were analyzed using a C6 Accuri flow cytometer (BD). […]

IL-17A = IL-17A protein and Il17a gene expression in IL-6/23-stimulated human neutrophils; type: cell-based
Method: (§1) Neutrophils were isolated from peripheral blood of healthy donors. Peripheral blood was incubated in 3% Dextran, and neutrophils isolated by Ficoll gradient centrifugation (Fisher Scientific), with neutrophil purity determined by staining with Wright-Giemsa.
IL-17A protein production was quantified by 2-site ELISA, according to the manufacturer's directions (R&D Biosciences).
(§2) Murine or human neutrophils were suspended at a density of 10^6 cells/ml and incubated with […] of recombinant mouse or human IL-6 and 2 μg/ml IL-23 in RPMI, and the cells were maintained for 1-3 h at 37° C. in 5% CO2. Various inhibitors were used for assessing STAT3 activation. For STAT3, neutrophils were treated with either the STAT3-SH2 inhibitor, Stattic (20 μM) obtained from Tocris, or the JAK-1, 2 inhibitor, INC424, (aka Ruxolitinib; 20 μM (Selleck BioChem)). For the determination of RORγt-dependent signaling, SR1001 (20 μM; Sigma) was used, which inhibits RORγt binding to the IL-17 promoter site. All inhibitors were added to neutrophils 2 h prior to recombinant IL-6 and IL-23 stimulation.
Neutrophil and corneal cell RNA was extracted using the RNeasy mini kit according to the manufacturer's directions (Qiagen, Valencia, Calif.). […]
The SYBR green system (Applied Biosystems, Carlsbad, Calif.) was utilized for quantitative PCR (qPCR) using ABI Biosystems. […]

IL-17RC = IL-17RC gene expression by qPCR in IL-6/23-stimulated human neutrophils; type: cell-based; conditions: IL-6/23 1 h, FIG. 6B
Method: as §1, §2
Neutrophil and corneal cell RNA was extracted using the RNeasy mini kit according to the manufacturer's directions (Qiagen, Valencia, Calif.). The quality of RNA was checked by spectrophotometry, and only samples with a 260/280 ratio of 2.0 were used to generate cDNA. The SuperScript First Strand synthesis system (Invitrogen) was used to generate cDNA according to the manufacturer's directions.
The SYBR green system (Applied Biosystems, Carlsbad, Calif.) was utilized for quantitative PCR (qPCR) using ABI Biosystems. PCR products were then run on a 1% agarose gel, and visualized using ethidium bromide. PCR products were compared to Actb (encoding the β-actin gene) or GAPDH as the controls for gel loading.

[1] = system: bone marrow-derived murine neutrophils; test: ROS production (CFDA) by murine bone marrow neutrophils incubated with Aspergillus hyphae; type: cell-based, C57BL/6 mice; conditions: IL-6/23-stimulated, inhibitor 20 μM, FIG. 6C
Method: Murine and human neutrophils were incubated with p-STAT3 (20 μM Stattic or 20 μM INC424) or RORγt inhibitors (20 μM SR1001) for 2 h. Then the cells were stimulated with […] of rIL-6 and 2 μg/ml of rIL-23 for 3 h, washed, and 2×10^5 bone marrow-derived murine neutrophils or 10^5 human peripheral blood neutrophils, with or without recombinant IL-17A, were added to each well with growing hyphae. RPMI media was used as positive control (unimpaired growth), and PBS was used as a negative control (no growth (data not shown)). After 16 h the wells were washed with PBS and the dsRed fungal mass was quantified in a 96-well fluorometer at 550/600 nm excitation/emission filter (Synergy HT, Biotek).
In vitro ROS production measured by CFDA was previously described. Briefly, 100 μg/100 μl of A. fumigatus hyphal extract (AspHE) were incubated with 2×10^5 murine or human neutrophils. Neutrophils were treated for 1 h with 1 μM Carboxyfluorescein diacetate (H2CFDA (Sigma)), which will fluoresce following ROS oxidation. Neutrophils were collected and analyzed by flow cytometry. H2CFDA pulsed neutrophils that had not been incubated with AspHE were used to set the ROS histogram gate. The average mean intensity was calculated by Accuri flow software and graphed in Prism.

O=[N+]([O-])c1ccc2c(c1)S(=O)(=O)C=C2 [Stattic]
RORγt localisation (cytoplasm vs nucleus) (RORγt): only detected in the cytoplasm | IL-17A protein (IL-17A; FIG. 5D): ablated | Il17a gene expression (IL-17A; FIG. 5E): ablated | IL-17RC expression (IL-17RC): did not inhibit | ROS production ([1]; plus rIL-17A): ROS production was increased | ROS production ([1]; without rIL-17A): not increased above the level produced by naïve neutrophils
